{"source": "patent US7091351B2", "about": "“Vanadium compounds for treating cancer” (Parker Hughes Institute, priority 1998, dated 2006)", "test_system": "NALM-6 B-lineage acute lymphoblastic leukemia cells", "assay": "MTT cytotoxicity assay of vanadocenes, NALM-6 cells", "type": "cell-based, human", "settings": "24 h", "protocol": "Human testicular cancer cell lines, Tera-2 (embryonal carcinoma) and Ntera-2 (pluripotent embryonal carcinoma) were obtained from the American Type Culture Collection (ATCC) (Rockeville, Md.) and propagated in T-25, T-75, or T-150 cm^2 tissue culture flasks (Corning Corp., Corning, N.Y.) in McCoy's 5A medium and Dulbecco's modified Eagle's medium respectively. Both media were supplemented with 10% fetal calf serum (FCS), 4 mM glutamine, 100 U/ml penicillin G, and […] streptomycin sulfate. All tissue culture reagents were obtained from Life Technologies Inc. (GIBCO-BRL), Gaithersburg, Md. Cell lines were cultivated for a minimum of two passages after thawing prior to experimentation. Other cell lines that were used in this study were the human B-lineage acute lymphoblastic leukemia (ALL) cell line NALM-6. Uckun, F. M., Evans, W. E., Forsyth, C. J., Waddick, K. G., Tuel-Ahlgren, L., Chelstrom, L. M., Burkhardt, A., Bolen, J., Myers, D. E. Biotherapy of B-cell precursor leukemia by targeting genistein to CD19-associated tyrosine kinase. Science (Washington DC) 267:886–91, 1995; T-lineage ALL cell line MOLT-3, Waurzyniak, B., Shneider, E. A., Tumer, N., Yanishevski, Y., Gunther, R., Chelstrom, L., Wendorf, H., Myers, D. E., Irvin, J. D., Messinger, Y., Ek, O., Zeren, T., Chandan-Langlie, M., Evans, W. E., Uckun, F. M. In vivo toxicity, pharmacokinetics, and antileukemic activity of TXU (anti-CD7)-pokeweed antiviral protein immunotoxin. Clinical Cancer Research 3:881–890, 1997; AML cell line HL-60, Perentesis, J. P., Waddick, K. G., Bendel, A. E., Shao, Y., Warman, B. E., Chandan-Langlie, M., and Uckun, F. M. Induction of apoptosis in multi-drug resistant andradiation-resistant acute myeloid leukemia cells by a recombinant fusion toxin directed against the granulocyte macrophage colony stimulating factor receptor. Clin. Cancer Res. 3:347–355, 1997; breast cancer cell lines MDA-MB-231 and BT-20, Uckun, F. M., Narla, R. K., Jun, X., Zeren, T., Venkatachalam, T., Waddick, K. G., Rostostev, A., Myers, D. E. Cytotoxic activity of EGF-genstein against breast cancer cells. Clin. Cancer Res. 4:901–912, 1998; glioblastoma cell lines U87 and U373, Narla, R. K., Liu, X., Myers, D. E., and Uckun, F. M. 4-(3′-Bromo-4′hydroxylphenyl)-amino-6,7-dimethoxyquinazoline (WHI-P154): A novel quinazoline derivative with potent cytotoxic activity against human glioblastoma cells. Clin. Cancer Res. 4:1405–1414, 1998.\nMTT (3-[4,5-dimethyl thiazol-2-yl]-2,5-diphenyltetrazolium bromide)-based colorimetric assays were used for evaluation of the cytotoxicity of vanadocene compounds. Mosmann, T. Rapid colorimetric assay for cellular growth and survival: application to proliferation and cytotoxicity assays. J. Immunol. Methods, 65: 55–63, 1983. Briefly, cells were harvested with 0.125% (w/v) trypsin-0.02% EDTA (GIBCO-BRL) from exponential-phase maintenance cultures and centrifuged (300 g×5 min). After suspension and counting, cells were dispensed within triplicate 96-well tissue culture plates in 100 μl volumes. After 24 h incubation, the culture medium was discarded and replaced with 100 μl of fresh medium containing serial two-fold dilutions of drugs in medium to yield 1.9 μM to 250 μM. All compounds were reconstituted in DMSO to a concentration of 100 mM, and the stock solution was made fresh for each experiment. Control wells consisted of medium containing 0.25% of DMSO alone were used for solvent control. […]"}
{"molecule": "[Cl-].[Cl-].[V+4].c1cc[cH-]c1.c1cc[cH-]c1", "note": "[VDC, VCp2Cl2]", "values": [{"measurement": "IC50", "result": 19, "unit": "µM"}]}
